≈ marks a conversion by molar mass, not a printed value. Read-outs that look alike come from different tables or passages of the source.
Legend:
[1] = test system: Haemophilus influenzae R252; experiment: MIC, standard agar-dilution assay (Table V); assay type: cell-based; settings: Haemophilus influenzae; H. influenzae R252, ampicillin-resistant strain; agar dilution; read-out: MIC
Procedure: (§1) The MIC's in Tables V and VI were determined by standard agar-dilution assays. The MIC's in Table VII were obtained using a conventional broth-dilution microtiter test.

[2] = test system: Haemophilus influenzae Holt; experiment: MIC, standard agar-dilution assay (Table V); assay type: cell-based; settings: Haemophilus influenzae
Procedure: as §1

[3] = test system: Streptococcus pyogenes C203; experiment: MIC, standard agar-dilution assay (Table V); assay type: cell-based; settings: Streptococcus pyogenes, C203
Procedure: as §1

Mycoplasma synoviae = experiment: MIC, broth-dilution microtiter test (Table VII); assay type: cell-based; settings: Mycoplasmopsis synoviae; M. synoviae; broth-dilution microtiter; read-out: MIC
Procedure: (§2) Especially noteworthy is the improved activity against gram-negative bacteria for several derivatives when compared to the activity of OMT. […] The MIC's in Tables V and VI were determined by standard agar-dilution assays. The MIC's in Table VII were obtained using a conventional broth-dilution microtiter test.

[4] = test system: Pasteurella multocida 17E; experiment: MIC, broth-dilution microtiter test (Table VII); assay type: cell-based; settings: Pasteurella multocida; P. multocida 17E, bovine isolate; broth-dilution microtiter; read-out: MIC
Summary of the method: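 Conventional dilution MICs: agar for Enterobacter, microtiter broth for Staphylococcus and Pasteurella.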

Escherichia coli EC14 = experiment: MIC, standard agar-dilution assay (Table V); assay type: cell-based; settings: Escherichia coli; E. coli EC14; agar dilution; read-out: MIC
Summary of the method: (§3)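 Growth inhibition in liquid medium, in a routine microtiter broth-dilution series, gave the MIC against staphylococci and pasteurellae; the gram-negative enteric strain was tested by conventional agar dilution instead.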

[5] = test system: Staphylococcus epidermidis EPI2; experiment: MIC, standard agar-dilution assay (Table V); assay type: cell-based; settings: Staphylococcus epidermidis; S. epidermidis EPI2; agar dilution; read-out: MIC
Procedure: as §2

[6] = test system: Klebsiella pneumoniae X26; experiment: MIC, standard agar-dilution assay (Table V); assay type: cell-based; settings: Klebsiella pneumoniae, X26
Procedure: as §2

[7] = test system: Streptococcus Group D X66; experiment: MIC, standard agar-dilution assay (Table V); assay type: cell-based
Procedure: as §2

[8] = test system: Staphylococcus epidermidis EPI1; experiment: MIC, standard agar-dilution assay (Table V); assay type: cell-based; settings: Staphylococcus epidermidis; S. epidermidis EPI1; agar dilution; read-out: MIC
Procedure: as §2

[9] = test system: Staphylococcus aureus X400; experiment: MIC, standard agar-dilution assay (Table V); assay type: cell-based; settings: Staphylococcus aureus, X400
Procedure: as §2

[10] = test system: Klebsiella pneumoniae KAE; experiment: MIC, standard agar-dilution assay (Table V); assay type: cell-based; settings: Klebsiella pneumoniae; K. pneumoniae KAE; agar dilution; read-out: MIC
Summary of the method: as §3

[11] = test system: Staphylococcus aureus X1.1; experiment: MIC, standard agar-dilution assay (Table V); assay type: cell-based; settings: Staphylococcus aureus, X1.1
Procedure: as §2

Streptococcus Group 9960 = experiment: MIC, standard agar-dilution assay (Table V); assay type: cell-based; settings: GROUP9960
Procedure: as §2

Escherichia coli N10 = experiment: MIC, standard agar-dilution assay (Table V); assay type: cell-based; settings: Escherichia coli, N10
Summary of the method: as §3

[12] = test system: Staphylococcus aureus S13E; experiment: MIC, standard agar-dilution assay (Table V); assay type: cell-based; settings: Staphylococcus aureus, S13E
Procedure: as §2

[13] = test system: Staphylococcus aureus V41; experiment: MIC, standard agar-dilution assay (Table V); assay type: cell-based; settings: Staphylococcus aureus, V41
Procedure: as §2

Shigella sonnei N9 = experiment: MIC, standard agar-dilution assay (Table V); assay type: cell-based
Summary of the method: as §3

[14] = test system: Streptococcus pyogenes C203; experiment: ED50 in mice experimentally infected with S. pyogenes C203 (Table VIII); assay type: in vivo; settings: doses given 1 and 4 hours postinfection
Procedure: The C-23 modified derivatives of OMT of this invention have shown in vivo antimicrobial activity against experimental infections. When two doses of test compound were administered to mice experimentally infected with a gram-positive bacterium, S. pyogenes C203, the activity observed was measured as an ED50 value [effective dose in mg/kg to protect 50% of the test animals: see Warren Wick, et al., J. Bacteriol. 81, 233-235 (1961)].

Proteus morganii PR15 = experiment: MIC, standard agar-dilution assay (Table VI); assay type: cell-based; settings: Morganella morganii, PR15
Procedure: as §2

Proteus inconstans PR33 = experiment: MIC, standard agar-dilution assay (Table VI); assay type: cell-based; settings: Providencia alcalifaciens; P. inconstans PR33; agar dilution; read-out: MIC
Procedure: as §2

[15] = test system: Enterobacter aerogenes EB17; experiment: MIC, standard agar-dilution assay (Table VI); assay type: cell-based; settings: Klebsiella aerogenes; E. aerogenes EB17; agar dilution; read-out: MIC
Procedure: as §2

Enterobacter cloacae EB5 = experiment: MIC, standard agar-dilution assay (Table VI); assay type: cell-based; settings: E. cloacae EB5, agar dilution, read-out: MIC
Procedure: as §2

[16] = test system: Salmonella heidelberg X514; experiment: MIC, standard agar-dilution assay (Table VI); assay type: cell-based; settings: Salmonella enterica; S. heidelberg X514; agar dilution; read-out: MIC
Procedure: as §2

Proteus rettgeri C24 = experiment: MIC, standard agar-dilution assay (Table VI); assay type: cell-based; settings: Providencia rettgeri, P. rettgeri C24
Procedure: as §2

[17] = test system: Enterobacter aerogenes C32; experiment: MIC, standard agar-dilution assay (Table VI); assay type: cell-based; settings: Klebsiella aerogenes; E. aerogenes C32; agar dilution; read-out: MIC
Procedure: as §2

[18] = test system: Pseudomonas aeruginosa Ps18; experiment: MIC, standard agar-dilution assay (Table VI); assay type: cell-based; settings: P. aeruginosa Ps18, agar dilution, read-out: MIC
Procedure: as §2

Serratia marcescens X99 = experiment: MIC, standard agar-dilution assay (Table VI); assay type: cell-based; settings: S. marcescens X99, agar dilution, read-out: MIC
Procedure: as §2

Proteus rettgeri PR7 = experiment: MIC, standard agar-dilution assay (Table VI); assay type: cell-based; settings: Providencia rettgeri; P. rettgeri PR7; agar dilution; read-out: MIC
Procedure: as §2

[19] = test system: Pseudomonas aeruginosa X528; experiment: MIC, standard agar-dilution assay (Table VI); assay type: cell-based; settings: X528
Procedure: as §2

Serratia marcescens SE3 = experiment: MIC, standard agar-dilution assay (Table VI); assay type: cell-based; settings: S. marcescens SE3, agar dilution, read-out: MIC
Procedure: as §2

Salmonella typhi 1335 = experiment: MIC, standard agar-dilution assay (Table VI); assay type: cell-based; settings: Salmonella enterica
Procedure: as §2

[20] = test system: Citrobacter freundii CF17; experiment: MIC, standard agar-dilution assay (Table VI); assay type: cell-based; settings: C. freundii CF17, agar dilution, read-out: MIC
Procedure: as §2

[21] = test system: Klebsiella pneumoniae X68; experiment: MIC, standard agar-dilution assay (Table VI); assay type: cell-based; settings: K. pneumoniae X68, agar dilution, read-out: MIC
Procedure: as §2

[22] = test system: Pseudomonas aeruginosa X239; experiment: MIC, standard agar-dilution assay (Table VI); assay type: cell-based; settings: P. aeruginosa X239, agar dilution, read-out: MIC
Procedure: as §2

[23] = test system: Streptococcus pneumoniae Park I; experiment: microbe, parasite or virus in culture; assay type: cell-based; settings: Streptococcus pneumoniae; read-out: MIC
Procedure: as §2

CCC1OC(=O)CC(O)C(C)C(OC2OC(C)C(O)C(N(C)C)C2O)C(CC=O)CC(C)C(=O)C=CC(C)=CC1CSc1nnc(C)s1 (stereo not shown) [Compound 3, 23-Deoxy-23-(5-methyl-1,3,4-thiadiazol-2-yl)thio-OMT]
MIC [1]: 2 µg/mL (≈ 2.81 µM) | MIC [2]: 2 µg/mL (≈ 2.81 µM) | MIC [3]: 0.125 µg/mL (≈ 0.176 µM) | MIC (Mycoplasma synoviae): 0.39 µg/mL (≈ 0.548 µM) | MIC [4]: 6.25 µg/mL (≈ 8.78 µM) | MIC (Escherichia coli EC14): 64 µg/mL (≈ 89.9 µM) | MIC [5]: 0.25 µg/mL (≈ 0.351 µM) | MIC [6]: 4 µg/mL (≈ 5.62 µM) | MIC [7]: 0.25 µg/mL (≈ 0.351 µM) | MIC [8]: 0.125 µg/mL (≈ 0.176 µM) | MIC [9]: 0.25 µg/mL (≈ 0.351 µM) | MIC [10]: > 128 µg/mL | MIC [11]: 0.25 µg/mL (≈ 0.351 µM) | MIC (Streptococcus Group 9960): 0.25 µg/mL (≈ 0.351 µM) | MIC (Escherichia coli N10): 64 µg/mL (≈ 89.9 µM) | MIC [12]: 0.25 µg/mL (≈ 0.351 µM) | MIC [13]: 0.25 µg/mL (≈ 0.351 µM) | MIC (Shigella sonnei N9): 64 µg/mL (≈ 89.9 µM) | ED50 ([14]; C203, mice, oral, read-out: ED50, Oral): 81 mg/kg | ED50 ([14]; C203, sc, mice, subcutaneous, read-out: ED50, Subcutaneous): 22.3 mg/kg | MIC (Proteus morganii PR15): 64 µg/mL (≈ 89.9 µM) | MIC (Proteus inconstans PR33): > 128 µg/mL | MIC [15]: > 128 µg/mL | MIC (Enterobacter cloacae EB5): > 128 µg/mL | MIC [16]: > 128 µg/mL | MIC (Proteus rettgeri C24): 64 µg/mL (≈ 89.9 µM) | MIC [17]: > 128 µg/mL | MIC [18]: > 128 µg/mL | MIC (Serratia marcescens X99): > 128 µg/mL | MIC (Proteus rettgeri PR7): 64 µg/mL (≈ 89.9 µM) | MIC [19]: 64 µg/mL (≈ 89.9 µM) | MIC (Serratia marcescens SE3): > 128 µg/mL | MIC (Salmonella typhi 1335): > 128 µg/mL | MIC [20]: > 128 µg/mL | MIC [21]: > 128 µg/mL | MIC [22]: > 128 µg/mL | MIC [23]: 0.06 µg/mL (≈ 0.0843 µM)
